Legend:
colorectal cancer cells = test: Sensitivity of colorectal cancer cells to doxorubicin; format: cell-based; settings: earlier studies of the inventors
Source text: The inventors have also shown that AR inhibition prevents colorectal cancer cells growth in tissue culture, nude mouse xenografts, and chemically-induced animal models of colorectal cancer. Based on these studies, the inventors investigated whether an AR inhibitor such as fidarestat could be used as combination therapy along with immune checkpoint inhibitor such as an anti-PD1 antibody resulting in an increase in the immunotherapeutic efficacy of anti-PD1 and prevent CRC growth.

CT-26 cells = test: CT-26 syngeneic Balb/c mouse tumor model, tumor growth; format: in vivo; settings: CT-26 syngeneic mouse model
Method: CT-26 cells (0.5×10^6) were injected subcutaneously into the flanks of Balb/c mice (n=4-7) on day 0. When tumor volume reaches approximately 45 mm^3, the mice were injected (i.p.) anti-PD-1, 200 μg/mouse, twice per week. Aldose reductase inhibitor (ARI) (25 mg/kg/day) were given in drinking water or by gavage. CT26 tumor were left untreated (Con) or treated with fidarestat (Fid), anti-PD-1 (PD1) or combination of both (Combo). Con mice were also treated with isotype matched control antibodies (PD-1 iso). Tumor growth was measured twice per week and animals were euthanized when the tumor volume reaches 2000 mm^3 in the control mice (˜30 days). Tumor volume (A) and tumor weight (B) were measured. Data Mean S.E.M. P<0.05; *P<0.05; **P<0.01 by one-way ANOVA followed by Dunnet and Tukey's multiple comparison test.

[1] = Cardiotoxicity associated with anthracycline drugs; settings: earlier studies of the inventors
MC38 cells = test: MC38 subcutaneous tumor model in C57BL/6 WT and ARKO mice, tumor growth; format: in vivo, mouse; settings: both the CRC models (CT26 and MC38)
Method: FIG. 7A-7D: AR deficiency/inhibition increases the efficacy of anti-PD1, decreases immune-related toxicities induced by anti-PD1 in CRC model, MC38. MC38 cells were inoculated subcutaneous in C57BL/6 WT and aldose reductase knockout (ARKO) mice. When tumors became palpable (approximately 40-43 mm^3), mice were randomized and treated with anti-PD-1 (twice a week), AR inhibitor (25 mg/kg/day in drinking water). MC38 tumor was left untreated in Con WT and ARKO or treated with Fid in WT, anti-PD-1 (PD1) in WT and ARKO or combination of both (Combo) in WT mice. Con WT and ARKO mice were also treated with isotype controls (PD-1 iso). […] Tumor growth was measured twice a week and animals were euthanized when the tumor volume reaches 2000 mm^3 in the control mice (approximately 27 days). […] Isolated TILs from tumors were analyzed by flow cytometry for intracellular staining of IFN-γ and granzyme B to analyze the effector function of CD8^+ T and NK cells in TILs. […]
MC38 cells were inoculated subcutaneous in C57BL/6 WT and aldose reductase knockout (ARKO) mice. […] Tumor growth was measured twice a week and animals were euthanized when the tumor volume reaches 2000 mm^3 in the control mice (approximately 27 days). […] Isolated TILs from tumors were analyzed by flow cytometry for intracellular staining of IFN-γ and granzyme B to analyze the effector function of CD8^+ T and NK cells in TILs. […]

[2] = Phase-III clinical trial, diabetic nephropathy; cited from earlier work

SMILES: NC(=O)[C@@H]1C[C@]2(NC(=O)NC2=O)c2cc(F)ccc2O1 [fidarestat, (2S,4S)-6-fluoro-2′,5′-dioxospiro(chroman-4,4′-imidazolidine)-2-carboxamide]
- sensitivity of colorectal cancer cells to doxorubicin (colorectal cancer cells): increased the sensitivity
- sensitivity of anti-PD1 immunotherapy (CT-26 cells): significantly increases the sensitivity of anti-PD1 immunotherapy
- cardiotoxicity associated with anthracycline drugs [1]: prevented cardiotoxicity
- efficacy of anti-PD1 and tumor growth (MC38 cells): increases the efficacy of anti-PD1 and decreases the tumor growth
- side effects [2]: no major side effects
